Experimental data as given in patent US20250195520A1, “COMBINATION THERAPY USING A PTPN11 INHIBITOR AND AN EGFR INHIBITOR” (NAVIRE PHARMA, INC., priority 2021, published 2025).

Legend:
[1] = system: DUSP6 mRNA in HCC827-ER1 tumors; assay: In vivo pharmacodynamic assay, Taqman qRT-PCR of DUSP6 in HCC827-ER1 xenograft tumors; parameters: species or system mouse
Method: In vivo modeling, treatment and data analysis. […] Dosing started ˜3 weeks after the subcutaneous implantation of the tumor cells. Dosing volume was 5 mL/kg for each compound, and was adjusted based on individual mouse weight. Dosing and sample harvesting followed the schedule below. There was a 6-hour interval between the morning dose and the afternoon dose, and tumor/plasma samples were harvested at three timepoints during the 24-hour dosing cycle.

[2] = biological target: T1, PTPN11-E76K mutant enzyme (Homo sapiens, UniProt Q06124, E76K); details: e.g. PTPN11-E76K mutant enzyme; stated as 'in certain embodiments'; read-out: IC50 for inhibition of PTPN11; cited from earlier work
T1 sequence (Q06124 1-593 E76K): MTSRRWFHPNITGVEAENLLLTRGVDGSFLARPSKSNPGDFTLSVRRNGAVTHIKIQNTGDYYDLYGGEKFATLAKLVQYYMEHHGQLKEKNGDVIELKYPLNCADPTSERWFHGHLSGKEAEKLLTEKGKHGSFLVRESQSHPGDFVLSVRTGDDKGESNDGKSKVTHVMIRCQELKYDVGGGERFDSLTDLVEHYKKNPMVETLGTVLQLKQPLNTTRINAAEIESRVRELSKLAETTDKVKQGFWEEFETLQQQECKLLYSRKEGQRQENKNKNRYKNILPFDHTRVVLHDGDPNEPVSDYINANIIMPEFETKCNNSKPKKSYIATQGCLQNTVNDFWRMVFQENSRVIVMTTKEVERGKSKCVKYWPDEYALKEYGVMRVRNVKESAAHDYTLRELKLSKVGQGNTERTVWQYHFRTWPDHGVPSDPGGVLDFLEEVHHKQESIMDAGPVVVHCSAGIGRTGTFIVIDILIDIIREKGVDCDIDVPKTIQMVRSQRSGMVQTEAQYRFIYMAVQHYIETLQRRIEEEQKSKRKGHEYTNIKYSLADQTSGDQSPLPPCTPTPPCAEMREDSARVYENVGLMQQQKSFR

[3] = system: HCC4006 cells; assay: In vitro 3-day proliferation assay (CellTiter-Glo 2.0), HCC4006; assay type: cell-based; details: Homo sapiens, 72 h, HCC4006 parental cells
Method: (§1) Cell lines. The HCC4006 cell line was purchased from ATCC. […] The cells were cultured in RPMI-1640 containing 4 mM glutamax (Thermo Fisher #72400-120)+10% fetal bovine serum (FBS, Sigma #F2442) in 37° C. tissue culture incubator with 5% CO2 (NUAIRE, NU-5510).
(§2) In vitro 3-day proliferation assay. HCC4006 or HCC4006-OsiR cells were plated in 96-well plates (Corning #3603) at 1,500 cells per well in 100 μL of media (RPMI-1640+10% FBS) and allowed to attach overnight. […] Final DMSO concentration was 0.1%. After 3 days of treatment, viable cell numbers were determined using CellTiter-Glo 2.0 cell viability assay (Promega #G9241).
(§3) CellTiter-Glo 2.0 cell viability assay. CellTiter-Glo 2.0 cell viability assay (Promega #G9241) was used to determine the relative viable cell number, following manufacturer's protocols. Briefly, 100 μL CellTiter-Glo reagent was added to each well in the 96-well plate. The plate was put on a VWR advanced 3500 orbital shaker (VWR #89032-096) at 100 rpm shaking for 5 min at room temperature, then incubated at room temperature for 15 min, protected from the light. Afterwards, luminescence was quantified using a PheraStar plate reader (BMG Labtech). The luminescence readings were normalized to the average of DMSO treated samples of each cell line, using Microsoft Excel. Data were plotted in GraphPad Prism 8.0. Non-linear fit was used to generate the dose response curve. […]

[4] = system: HCC4006-OsiR cells; assay: In vitro clonogenic assay (crystal violet, Bliss score), HCC4006-OsiR; assay type: cell-based, human; details: 14-day clonogenic assay
Method: (§4) In vitro clonogenic assay. […] Compounds were prediluted in media at 4x the final concentration, and the final DMSO concentration was 0.2% in 1 mL of media per 24-well. After 12˜14 days of treatment, the plates were stained with crystal violet solution.
(§5) Crystal violet staining, quantification and Bliss score calculation. The 0.1% crystal violet staining solution was prepared by mixing 100 mL of 1% crystal violet solution (Sigma #V5265), 100 mL of 100% ethanol and 800 mL of ddH2O. […] After removal of DPBS, 0.5 mL of 0.1% crystal violet staining solution was added to each 24-well. The plates were incubated at room temperature for 30 min. The staining solution was removed from wells and discarded. Each well was then washed with 1 mL of ddH2O. Afterwards, the plates were dipped in a large bucket filled with tap water 2˜4 times until the supernatant became colorless. […]
(§6) The OD590 readings (multiplied by the dilution factor) were normalized to the average of DMSO treated samples, using Microsoft Excel. The Bliss expectation was calculated with the equation (A+B)−A×B/100, where A and B were the percentage growth inhibition induced by agents A and B at a given dose. Bliss score is the difference between the detected growth inhibition (%) caused by the combination of the two agents and the bliss expectation. […]

[5] = system: HCC4006 cells; assay: In vitro clonogenic assay (crystal violet, Bliss score), HCC4006; assay type: cell-based; details: Homo sapiens, 336 h; HCC4006, 14-day clonogenic assay
Method: as §4, §5, §6

[6] = system: HCC4006-OsiR cells; assay: In vitro 3-day proliferation assay (CellTiter-Glo 2.0), HCC4006-OsiR; assay type: cell-based, human
Method: as §1, §2, §3

Row | SMILES | suppression of DUSP6 mRNA levels ([1]; 6-hour and 8-hour after formula (10b) dosing, 100 mg/kg) | suppression of DUSP6 mRNA levels ([1]; across the three timepoints (best suppression), osimertinib 5 mg/kg, formula (10b) 100 mg/kg) | IC50 [2] | IC50 [3] | shift in IC50, HCC4006-OsiR compared with HCC4006 parental cells [4] | IC50 ([4]; Homo sapiens, 336 h, HCC4006-OsiR) | IC50 [5] | anti-proliferative effect ([6]; 1,000 nM (the highest concentration tested), HCC4006-OsiR, 3-day) | IC50 ([6]; Homo sapiens, 72 h, HCC4006-OsiR cells, 3-day proliferation assay)
1 | Cc1c(N2CCC3(CC2)CO[C@@H](C)[C@H]3N)nc(C)n(-c2cccc(Cl)c2Cl)c1=O (atropisomer, axis not shown; (Ra)) [Formula (10b), 6-((3S,4S)-4-amino-3-methyl-2-oxa-8-azaspiro[4.5]decan-8-yl)-3-(Ra)-(2,3-dichlorophenyl)-2,5-dimethylpyrimidin-4 (3H)-one] | over 90% | suppresses DUSP6 mRNA levels | ≤ 50 nM |  |  |  |  |  | 
2 | C=CC(=O)Nc1cc(Nc2nccc(-c3cn(C)c4ccccc34)n2)c(OC)cc1N(C)CCN(C)C [Osimertinib] |  |  |  | 27 ± 7.9 nM | 20 fold | 257 ± 241 nM | 12.2 ± 2.5 nM | no anti-proliferative effect | > 1000 nM
